This is an account of results in ChEMBL document CHEMBL1201862, “PubChem BioAssay data set” (2004).

A short description of assay [1]: Trypanosoma cruzi growth suppression in host cells – NIH3T3 host cells, beta-gal luminescence, confirmation (AID 2044).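 Further: intracellular parasites grown in NIH/3T3 mouse fibroblasts as host cells; luminescent beta-galactosidase reporter signal from transgenic T. cruzi replicating inside host cells; inhibitors lower the luminescence signal.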 It counts as functional, cell-based.
The nature of assay [2]: MIN6 cell viability loss – mouse insulinoma, cytotoxicity control, dose response (AID 2122).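 Further: confirmatory high-throughput counterscreen run to flag cytotoxic compounds.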 The class given is functional.
Assay [3] in a line: decrease of insulin promoter-GFP reporter – imaging, high-content screening, mouse beta cells (AID 1628). It counts as functional. The note with it: MIN6.
Assay [4] can be described thus: NIH3T3 cell viability loss – ATP luminescence, mouse fibroblasts, counter-screen, dose response (AID 2010).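 Further: cells exposed to compound for about 90 hours before reading.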 The class given is functional, cell-based.
The nature of assay [5]: alpha-synuclein stem-loop luciferase translation blockers – H4 neuroglioma cells, luminescence, confirmation (AID 1988). It counts as functional, cell-based.
Assay [6] is described as follows: luciferase reporter signal suppression in cells – H4 neuroglioma cells, luminescence, dose response (AID 1990). It counts as functional, cell-based. On the technique in general: In a reporter assay the amount or activity of a reporter protein is the signal.
Assay [7] can be described thus: Luminescence Cell-Based Dose Response HTS to Identify Inhibitors of 5'UTR Stem-Loop Driven Prion Protein mRNA Translation in H4 Neuroglioblastoma Cells. [Related pubchem assays: 1827 (Project Summary), 1813 (Primary HTS)]. It counts as functional.
The next assay deals with HEK293. Briefly: EBV LMP1 TES2 canonical NF-kB signalling blockers – cell-based, HEK293, luciferase, cherry-pick, dose response (AID 588343). It counts as functional. As to conditions: Homo sapiens.
The target of assay [8] is T1, Ubiquitin-conjugating enzyme E2 N (Homo sapiens, UniProt P61088).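 Further: Dose-response confirmation in a TR-FRET assay detecting UBC13-driven polyubiquitin chain formation, inhibition measured.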
T1 sequence (P61088 whole entry): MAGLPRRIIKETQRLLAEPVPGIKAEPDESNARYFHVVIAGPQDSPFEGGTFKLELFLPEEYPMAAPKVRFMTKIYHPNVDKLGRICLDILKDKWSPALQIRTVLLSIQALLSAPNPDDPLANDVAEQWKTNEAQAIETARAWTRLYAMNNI
The class given is functional.

A short description of assay [9]: microbe, parasite or virus in culture. The note with it: Mycobacterium tuberculosis. It counts as functional.
Another assay has as its system Escherichia coli. Briefly: microbe, parasite or virus in culture.
For assay [10], the target named is T2, Short transient receptor potential channel 4 (Mus musculus, UniProt Q9QUQ5).
T2 sequence (Q9QUQ5 whole entry): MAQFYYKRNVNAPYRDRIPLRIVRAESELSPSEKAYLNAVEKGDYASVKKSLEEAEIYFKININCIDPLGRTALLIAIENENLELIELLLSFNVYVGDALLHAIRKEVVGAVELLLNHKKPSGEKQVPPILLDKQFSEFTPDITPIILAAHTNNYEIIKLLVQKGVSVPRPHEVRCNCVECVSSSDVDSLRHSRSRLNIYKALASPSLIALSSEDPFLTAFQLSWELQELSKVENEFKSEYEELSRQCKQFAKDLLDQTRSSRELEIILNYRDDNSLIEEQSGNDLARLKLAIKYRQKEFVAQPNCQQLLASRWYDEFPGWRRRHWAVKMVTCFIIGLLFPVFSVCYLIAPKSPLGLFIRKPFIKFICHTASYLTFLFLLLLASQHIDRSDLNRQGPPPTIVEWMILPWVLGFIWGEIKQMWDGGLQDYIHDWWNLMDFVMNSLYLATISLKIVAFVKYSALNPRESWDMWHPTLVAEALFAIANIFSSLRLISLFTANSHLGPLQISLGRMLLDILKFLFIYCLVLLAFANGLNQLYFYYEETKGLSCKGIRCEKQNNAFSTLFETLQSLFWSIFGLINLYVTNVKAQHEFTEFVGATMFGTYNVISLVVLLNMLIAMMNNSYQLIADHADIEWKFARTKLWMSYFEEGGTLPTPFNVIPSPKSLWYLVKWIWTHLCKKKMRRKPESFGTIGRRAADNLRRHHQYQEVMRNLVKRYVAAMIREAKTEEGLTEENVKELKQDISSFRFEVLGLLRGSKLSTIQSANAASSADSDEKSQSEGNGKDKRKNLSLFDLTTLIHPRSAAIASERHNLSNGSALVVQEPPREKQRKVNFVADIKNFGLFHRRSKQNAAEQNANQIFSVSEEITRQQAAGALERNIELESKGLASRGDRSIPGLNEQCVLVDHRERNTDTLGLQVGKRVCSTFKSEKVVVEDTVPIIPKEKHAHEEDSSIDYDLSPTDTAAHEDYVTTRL
Kind of assay: calcium entry via TRPC4 opening agents – cell-based, HEK293 TRPC4/mu-opioid, Fluo-4 calcium, dose response (AID 434937). It counts as functional.

The target in assay [11] is T2, Short transient receptor potential channel 4. Kind of assay: block of DAMGO-driven TRPC4 calcium entry – cell-based, HEK293 TRPC4/mu-opioid, Fluo-4 calcium, dose response (AID 434942).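 Further: potency of inhibitors blocking the TRPC4 calcium response.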 It counts as functional.
Assay [12] addresses T3, Serine/threonine-protein phosphatase (Candida dubliniensis (strain CD36 / CBS 7987 / NCPF 3949 / NRRLY-17841) (Yeast), UniProt B9W6M3).
T3 sequence (B9W6M3 whole entry): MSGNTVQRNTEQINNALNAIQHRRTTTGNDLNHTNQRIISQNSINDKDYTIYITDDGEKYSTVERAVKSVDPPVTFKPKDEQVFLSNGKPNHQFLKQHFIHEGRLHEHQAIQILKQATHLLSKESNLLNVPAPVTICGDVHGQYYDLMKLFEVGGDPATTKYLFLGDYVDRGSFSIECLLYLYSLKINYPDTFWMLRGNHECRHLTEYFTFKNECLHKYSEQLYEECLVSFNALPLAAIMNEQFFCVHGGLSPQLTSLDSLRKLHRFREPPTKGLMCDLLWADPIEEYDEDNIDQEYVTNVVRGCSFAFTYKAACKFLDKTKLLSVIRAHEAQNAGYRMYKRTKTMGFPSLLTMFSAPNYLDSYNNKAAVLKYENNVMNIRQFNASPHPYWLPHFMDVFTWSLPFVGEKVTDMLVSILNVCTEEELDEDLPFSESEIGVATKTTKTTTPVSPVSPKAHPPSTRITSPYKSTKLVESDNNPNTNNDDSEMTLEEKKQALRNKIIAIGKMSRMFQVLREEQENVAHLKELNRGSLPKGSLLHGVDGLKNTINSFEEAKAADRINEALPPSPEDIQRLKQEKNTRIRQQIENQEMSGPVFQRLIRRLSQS
Kind of assay: blockers of CaCl2-induced CDRE-lacZ signaling – S. cerevisiae, luminescence, secondary, dose response (AID 2388).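 Further: yeast reporter cells carrying a calcineurin-responsive lacZ construct stimulated with calcium chloride; luminescent beta-galactosidase reporter signal in whole cells rather than isolated phosphatase activity; potency for inhibition where a drop in reporter signal means calcineurin blockade.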 It counts as functional, cell-based.

A short description of assay [13]: NIH-3T3 fibroblast cytotoxicity, dose response, cytotoxicity control, cell-based, fluorescence, Alamar Blue, secondary assay (AID 2327).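 Further: NIH-3T3 mouse fibroblasts cultured with fluconazole at 8 µg/mL.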 The class given is functional. For orientation: Alamar Blue is a resazurin reagent that responds to reducing activity.
Assay [14] is described as follows: fluconazole-exposed Candida albicans growth modulators – fluorescence, retest, confirmation (AID 2467). The class given is functional, cell-based.
For assay [15], the target named is T4, Calpain-2 catalytic subunit (Sus scrofa, UniProt P43367).
T4 sequence (P43367 whole entry): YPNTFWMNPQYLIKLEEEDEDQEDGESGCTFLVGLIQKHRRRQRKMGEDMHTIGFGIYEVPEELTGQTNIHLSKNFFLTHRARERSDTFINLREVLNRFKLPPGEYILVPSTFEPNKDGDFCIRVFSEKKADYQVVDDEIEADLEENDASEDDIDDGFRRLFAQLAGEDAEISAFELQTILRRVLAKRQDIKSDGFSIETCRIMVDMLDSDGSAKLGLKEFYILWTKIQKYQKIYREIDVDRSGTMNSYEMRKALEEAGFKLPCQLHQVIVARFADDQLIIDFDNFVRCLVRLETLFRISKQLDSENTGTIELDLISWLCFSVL
Kind of assay: m-calpain protease blockers, concentration series – biochemical, fluorogenic peptide substrate, dose response (AID 1420). It counts as functional.

For assay [16], the target named is ATP-dependent molecular chaperone HSP82 (Candida albicans (strain WO-1) (Yeast), UniProt C4YTQ8). Kind of assay: steroid-induced GRE reporter decrease in yeast – S. cerevisiae, luminescence, Hsp90 inhibitor project, dose response (AID 2400).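 Further: beta-galactosidase luminescence from glucocorticoid response element reporter as proxy for Hsp90 function; inhibitor potency where signal loss means Hsp90 inhibition.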 It counts as functional, cell-based.
Assay [17] deals with Glucose-6-phosphate 1-dehydrogenase (Homo sapiens, UniProt P11413). Briefly: inhibition of Homo sapiens G6PD, dose series – biochemical, fluorescence, selectivity assay for P. falciparum G6PD inhibitor project, dose response (AID 504792). The class given is functional.
A short description of assay [18]: Vero E6 cell cytotoxicity, dose response, cytotoxicity control for non-replicating M. tuberculosis project, secondary assay (AID 492998). It counts as functional, VeroE6. The note with it: Vero C1008.
Assay [19] is described as follows: HepG2 cell cytotoxicity, dose response, cytotoxicity control for non-replicating M. tuberculosis project (AID 489018). As to conditions: Mycobacterium tuberculosis. It counts as functional.
A further assay addresses T5, Protein skinhead-1 (Caenorhabditis elegans, UniProt P34707).
T5 sequence (P34707 whole entry): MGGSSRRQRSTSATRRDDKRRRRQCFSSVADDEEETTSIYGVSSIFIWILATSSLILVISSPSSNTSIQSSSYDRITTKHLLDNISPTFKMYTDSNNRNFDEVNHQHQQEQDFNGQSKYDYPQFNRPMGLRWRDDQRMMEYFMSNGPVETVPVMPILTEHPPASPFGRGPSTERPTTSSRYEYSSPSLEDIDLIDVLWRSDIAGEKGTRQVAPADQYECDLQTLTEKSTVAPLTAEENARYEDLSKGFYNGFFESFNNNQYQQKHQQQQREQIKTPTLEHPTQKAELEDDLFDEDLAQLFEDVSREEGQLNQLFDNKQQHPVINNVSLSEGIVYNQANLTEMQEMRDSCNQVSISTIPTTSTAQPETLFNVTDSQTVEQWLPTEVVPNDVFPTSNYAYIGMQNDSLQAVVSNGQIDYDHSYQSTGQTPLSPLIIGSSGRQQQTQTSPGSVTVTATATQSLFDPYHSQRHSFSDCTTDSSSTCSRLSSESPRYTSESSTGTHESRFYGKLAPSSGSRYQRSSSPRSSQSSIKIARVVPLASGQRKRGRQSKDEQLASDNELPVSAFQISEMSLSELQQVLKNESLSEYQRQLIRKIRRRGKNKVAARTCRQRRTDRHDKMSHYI
It counts as functional.

The next assay in a line: cells. It counts as functional.
Assay [20] is described as follows: THP-1 cell cytotoxicity, dose response, cytotoxicity control for non-replicating M. tuberculosis project (AID 489025). The class given is functional.

Active and inactive are the calls of the source.

Chain of Glucose-6-phosphate 1-dehydrogenase (P11413 whole entry): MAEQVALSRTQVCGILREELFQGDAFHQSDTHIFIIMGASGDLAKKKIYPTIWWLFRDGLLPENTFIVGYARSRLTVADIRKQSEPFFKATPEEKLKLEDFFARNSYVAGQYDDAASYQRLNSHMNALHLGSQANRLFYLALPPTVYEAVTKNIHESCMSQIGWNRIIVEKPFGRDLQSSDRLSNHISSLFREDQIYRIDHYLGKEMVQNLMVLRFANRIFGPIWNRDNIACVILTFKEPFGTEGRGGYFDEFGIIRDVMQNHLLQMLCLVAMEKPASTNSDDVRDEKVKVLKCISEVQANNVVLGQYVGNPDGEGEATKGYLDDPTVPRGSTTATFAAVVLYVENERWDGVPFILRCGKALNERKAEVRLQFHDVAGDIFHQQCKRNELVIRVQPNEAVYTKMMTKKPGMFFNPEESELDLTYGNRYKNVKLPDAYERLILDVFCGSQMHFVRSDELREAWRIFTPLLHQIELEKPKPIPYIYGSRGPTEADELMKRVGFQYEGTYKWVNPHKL
Chain of ATP-dependent molecular chaperone HSP82 (C4YTQ8 whole entry): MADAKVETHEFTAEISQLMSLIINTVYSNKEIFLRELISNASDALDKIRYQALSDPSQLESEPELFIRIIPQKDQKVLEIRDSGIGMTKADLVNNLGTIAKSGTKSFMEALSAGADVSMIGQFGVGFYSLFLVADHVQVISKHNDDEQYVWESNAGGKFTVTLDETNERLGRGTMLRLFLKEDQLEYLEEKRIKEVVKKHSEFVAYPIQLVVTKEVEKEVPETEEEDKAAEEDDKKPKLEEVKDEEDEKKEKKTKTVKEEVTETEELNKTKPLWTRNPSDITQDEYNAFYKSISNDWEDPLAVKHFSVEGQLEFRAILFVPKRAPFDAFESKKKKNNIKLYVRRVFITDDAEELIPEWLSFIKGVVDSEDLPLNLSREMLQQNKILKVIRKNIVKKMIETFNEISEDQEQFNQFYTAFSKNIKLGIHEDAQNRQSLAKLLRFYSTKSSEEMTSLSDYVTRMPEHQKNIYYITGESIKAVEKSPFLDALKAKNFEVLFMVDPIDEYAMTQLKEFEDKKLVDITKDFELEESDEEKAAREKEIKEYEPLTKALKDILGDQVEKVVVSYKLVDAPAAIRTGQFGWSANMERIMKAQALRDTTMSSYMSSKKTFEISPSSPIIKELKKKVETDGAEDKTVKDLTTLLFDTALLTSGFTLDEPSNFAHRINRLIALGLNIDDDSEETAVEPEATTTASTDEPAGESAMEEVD

The EC50 is the concentration at which the effect is half-maximal. As usually defined, the IC50 is the concentration that inhibits the measured activity by half. Turning to `COc1cccc(CNC(=O)CN2CCC(c3nc4cc(C)ccc4[nH]3)CC2)c1`, the results for the 50% effective concentration (EC50) in assay [1] and in assay [4] were 0.217 µM (active) and > 60 µM (not active), respectively. Further, the IC50 in assay [2] is 15 µM (inactive); in [3] it was 2 µM (active).

Usually AC50 stands for the midpoint of the concentration-response curve, whichever way the signal moves. Turning to `Oc1c2c(nc3c(-c4cccc(Br)c4)cnn13)CCCC2`, the EC50 in [5] was 9.2 µM (active); in assay [6], 11.2 µM (active); in assay [7] it was 8.39 µM (active). Besides, the AC50 with HEK293 is 4.49 µM (active).

Regarding `COC(=O)c1c(N=C(S)NN2CCN(C)CC2)sc2c1CCC(C)C2` (configuration not stated), the IC50 in [2] is 3.07 µM (active); in assay [3], 4.04 µM (active); in assay [8] it was > 20 µM (inactive). Further, the CC50 in assay [9] is 11.6 µM (active).

`COc1ccc(Nc2nc(NCCO)nc(OC)n2)cc1`: the half-maximal activity concentration (AC50) with Escherichia coli was 25.5 µM (active).

`CCCN1CCN(C(=O)Cn2c(=O)oc3cc(S(=O)(=O)NCc4ccccc4)ccc32)CC1`: the EC50 in assay [10] was 4.22 µM (active).

Regarding `CN(C)C(CNC(=O)c1ccc2c(c1)S(=O)(=O)c1ccccc1C2=O)c1ccco1` (configuration not stated), the EC50 in assay [11] is 4.73 µM (active); in assay [10], 0.668 µM (active).

Regarding `Cc1ccc(NC(=O)c2noc(C(C)C)c2[N+](=O)[O-])cc1`, the EC50 was > 180 µM (inactive) in assay [12], > 150 µM (inconclusive) in assay [13], 3.18 µM (active) in assay [14] and > 160 µM (inactive) in assay [16]. For the same molecule, the half-maximal inhibitory concentration (IC50) in assay [15] is recorded as > 50 µM (not active).

For `CCOC(=O)CSc1nnc(NC(=O)c2cccc([N+](=O)[O-])c2)s1`, the IC50 in assay [17] was 43.8 µM (inactive).

With `CCN(CC)Cc1ccc(NC(=O)c2sc3cc(Cl)ccc3c2Cl)cc1`, the CC50 in assay [18] was 18.9 µM (active); in [19], 11.7 µM (active); in [20], 19.9 µM (active). Besides, the half-maximal effective concentration (EC50) in [13] was 16.8 µM (inconclusive); in assay [14], 3.87 µM (active). Besides, the values for the half-inhibitory concentration (IC50) at Protein skinhead-1 and in “cells” were 26.3 µM (active) and 32.9 µM (active), respectively.

For the molecule `COc1cc(NCCCn2cnc(C(=O)Nc3ccc(C)c(C)c3)n2)cc(OC)c1OC`, the IC50 in assay [17] is > 80 µM (inactive).

Take `Cn1ncc(Cl)c1C(=O)NC1CCCC1`: the AC50 in the assay with HEK293 was > 350 µM (inactive).

With `Cc1ccc(-c2c(C(=O)N/N=C/c3cccs3)nnn2-c2nonc2N)cc1`, in assay [17], the IC50 is > 80 µM (inactive).
